Measured values reported in US8044069B2, “Compounds as calcium channel blockers” (Abbott Laboratories, priority 2008, dated 2011).

Each compound was assayed against human Cav2.2 (Homo sapiens, UniProt Q00975) (assay: Assessment of calcium channel activity using FLIPR (Ca2+ influx in IMR32 cells)). Conditions: IMR32 cells endogenously expressing human Cav2.2; 60 minute pre-incubation; 2 μM nifedipine; depolarized with 80 mM KCl, 5 mM CaCl2.
Type: cell-based
In short: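 IMR32 cells were dye-loaded and pre-incubated 60 min with compound (10 μM to 0.1 nM) in 1.3 mM CaCl2 plus 2 μM nifedipine to block L-type channels. Cells were then depolarized with 80 mM KCl while Ca2+ was raised to 5 mM, and FLIPR read the influx. IC50 came from a sigmoidal fit of % inhibition versus the no-inhibitor control.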

human Cav2.2, sequence (Q00975 whole entry): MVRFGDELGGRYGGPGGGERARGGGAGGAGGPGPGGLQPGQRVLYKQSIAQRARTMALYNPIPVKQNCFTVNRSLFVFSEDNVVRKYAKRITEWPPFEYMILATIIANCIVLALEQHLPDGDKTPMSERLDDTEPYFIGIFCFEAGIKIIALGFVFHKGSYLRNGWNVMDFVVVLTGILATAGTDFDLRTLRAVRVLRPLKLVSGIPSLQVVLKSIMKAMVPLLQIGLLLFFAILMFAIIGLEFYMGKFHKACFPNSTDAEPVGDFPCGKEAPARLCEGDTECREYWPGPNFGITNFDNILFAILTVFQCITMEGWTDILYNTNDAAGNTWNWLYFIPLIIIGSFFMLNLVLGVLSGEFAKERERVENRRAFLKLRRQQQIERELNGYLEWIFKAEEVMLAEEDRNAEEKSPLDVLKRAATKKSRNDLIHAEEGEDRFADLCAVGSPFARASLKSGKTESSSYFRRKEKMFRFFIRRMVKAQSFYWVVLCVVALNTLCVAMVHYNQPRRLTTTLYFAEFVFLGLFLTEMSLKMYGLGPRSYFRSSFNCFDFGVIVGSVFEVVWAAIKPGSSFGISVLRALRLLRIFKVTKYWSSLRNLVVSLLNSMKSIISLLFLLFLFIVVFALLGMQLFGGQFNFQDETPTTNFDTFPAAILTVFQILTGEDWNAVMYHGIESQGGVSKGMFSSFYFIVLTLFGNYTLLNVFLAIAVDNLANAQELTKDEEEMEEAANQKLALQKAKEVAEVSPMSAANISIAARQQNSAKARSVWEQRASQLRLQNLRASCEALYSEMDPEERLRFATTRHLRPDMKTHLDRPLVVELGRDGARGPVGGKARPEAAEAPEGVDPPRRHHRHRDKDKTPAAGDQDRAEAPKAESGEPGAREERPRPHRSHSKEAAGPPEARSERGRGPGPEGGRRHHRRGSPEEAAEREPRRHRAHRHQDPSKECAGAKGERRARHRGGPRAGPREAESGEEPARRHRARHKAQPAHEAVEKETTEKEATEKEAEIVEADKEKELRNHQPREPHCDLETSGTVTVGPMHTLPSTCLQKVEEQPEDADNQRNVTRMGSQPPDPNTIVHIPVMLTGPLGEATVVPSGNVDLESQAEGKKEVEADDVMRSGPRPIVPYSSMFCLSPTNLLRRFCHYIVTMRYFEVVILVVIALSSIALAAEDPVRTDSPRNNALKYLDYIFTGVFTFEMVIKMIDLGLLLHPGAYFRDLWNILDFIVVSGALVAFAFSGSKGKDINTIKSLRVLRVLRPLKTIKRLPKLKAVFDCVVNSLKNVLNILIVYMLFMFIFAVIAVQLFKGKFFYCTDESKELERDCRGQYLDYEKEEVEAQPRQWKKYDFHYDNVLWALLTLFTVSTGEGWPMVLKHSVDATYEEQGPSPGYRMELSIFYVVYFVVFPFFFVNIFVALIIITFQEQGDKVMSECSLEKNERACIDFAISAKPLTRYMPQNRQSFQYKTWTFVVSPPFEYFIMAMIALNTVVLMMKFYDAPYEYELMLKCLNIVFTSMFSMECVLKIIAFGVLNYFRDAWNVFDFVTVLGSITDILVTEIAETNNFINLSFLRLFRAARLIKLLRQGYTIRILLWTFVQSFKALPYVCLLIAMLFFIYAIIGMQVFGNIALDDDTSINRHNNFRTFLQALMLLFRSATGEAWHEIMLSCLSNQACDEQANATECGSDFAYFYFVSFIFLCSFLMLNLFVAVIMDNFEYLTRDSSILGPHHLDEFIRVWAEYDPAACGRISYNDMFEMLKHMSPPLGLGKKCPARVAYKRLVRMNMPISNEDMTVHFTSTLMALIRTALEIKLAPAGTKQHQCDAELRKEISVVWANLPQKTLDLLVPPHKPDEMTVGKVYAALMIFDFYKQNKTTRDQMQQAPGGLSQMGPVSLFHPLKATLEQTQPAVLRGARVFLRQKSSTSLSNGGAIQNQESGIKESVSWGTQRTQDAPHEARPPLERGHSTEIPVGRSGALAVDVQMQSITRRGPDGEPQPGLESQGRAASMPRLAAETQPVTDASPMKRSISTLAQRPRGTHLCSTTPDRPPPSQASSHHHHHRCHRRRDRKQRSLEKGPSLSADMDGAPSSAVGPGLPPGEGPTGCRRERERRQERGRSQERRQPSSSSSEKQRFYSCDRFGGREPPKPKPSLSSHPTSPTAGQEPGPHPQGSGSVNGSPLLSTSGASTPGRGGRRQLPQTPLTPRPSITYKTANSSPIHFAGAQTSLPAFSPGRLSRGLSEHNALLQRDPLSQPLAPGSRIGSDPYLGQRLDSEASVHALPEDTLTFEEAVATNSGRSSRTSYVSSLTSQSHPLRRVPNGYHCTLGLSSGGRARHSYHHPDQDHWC
human Cav2.2, sequence (P54289 25-951 partner limits assumed): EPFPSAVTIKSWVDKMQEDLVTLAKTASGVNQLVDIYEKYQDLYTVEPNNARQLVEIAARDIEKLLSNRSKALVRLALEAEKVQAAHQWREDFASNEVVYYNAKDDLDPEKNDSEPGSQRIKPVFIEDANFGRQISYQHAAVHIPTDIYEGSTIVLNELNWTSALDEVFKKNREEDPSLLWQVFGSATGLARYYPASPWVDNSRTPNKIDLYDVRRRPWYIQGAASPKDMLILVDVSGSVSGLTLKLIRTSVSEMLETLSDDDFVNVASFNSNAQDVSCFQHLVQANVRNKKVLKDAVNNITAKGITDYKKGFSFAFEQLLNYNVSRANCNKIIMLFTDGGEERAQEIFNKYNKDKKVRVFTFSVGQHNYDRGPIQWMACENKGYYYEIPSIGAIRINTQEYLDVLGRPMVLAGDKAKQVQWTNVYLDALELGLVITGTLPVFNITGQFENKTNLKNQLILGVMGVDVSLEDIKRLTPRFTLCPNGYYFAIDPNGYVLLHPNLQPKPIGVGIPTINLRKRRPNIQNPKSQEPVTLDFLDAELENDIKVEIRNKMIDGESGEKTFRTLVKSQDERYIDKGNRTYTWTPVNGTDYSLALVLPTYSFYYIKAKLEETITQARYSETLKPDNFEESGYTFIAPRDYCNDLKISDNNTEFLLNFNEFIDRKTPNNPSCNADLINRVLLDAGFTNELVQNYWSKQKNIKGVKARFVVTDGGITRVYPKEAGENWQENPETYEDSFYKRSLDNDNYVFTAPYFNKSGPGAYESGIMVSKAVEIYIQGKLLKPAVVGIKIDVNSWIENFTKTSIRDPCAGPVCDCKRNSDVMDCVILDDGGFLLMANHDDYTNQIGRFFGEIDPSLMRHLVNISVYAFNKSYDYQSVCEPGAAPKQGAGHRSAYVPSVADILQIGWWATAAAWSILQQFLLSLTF
human Cav2.2, sequence (P54289 952-1103 partner limits assumed): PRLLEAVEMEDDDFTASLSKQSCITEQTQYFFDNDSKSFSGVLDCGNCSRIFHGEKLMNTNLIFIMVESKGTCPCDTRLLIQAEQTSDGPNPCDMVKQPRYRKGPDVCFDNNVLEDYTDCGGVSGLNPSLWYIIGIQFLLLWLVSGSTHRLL
human Cav2.2, sequence (P54284 whole entry partner): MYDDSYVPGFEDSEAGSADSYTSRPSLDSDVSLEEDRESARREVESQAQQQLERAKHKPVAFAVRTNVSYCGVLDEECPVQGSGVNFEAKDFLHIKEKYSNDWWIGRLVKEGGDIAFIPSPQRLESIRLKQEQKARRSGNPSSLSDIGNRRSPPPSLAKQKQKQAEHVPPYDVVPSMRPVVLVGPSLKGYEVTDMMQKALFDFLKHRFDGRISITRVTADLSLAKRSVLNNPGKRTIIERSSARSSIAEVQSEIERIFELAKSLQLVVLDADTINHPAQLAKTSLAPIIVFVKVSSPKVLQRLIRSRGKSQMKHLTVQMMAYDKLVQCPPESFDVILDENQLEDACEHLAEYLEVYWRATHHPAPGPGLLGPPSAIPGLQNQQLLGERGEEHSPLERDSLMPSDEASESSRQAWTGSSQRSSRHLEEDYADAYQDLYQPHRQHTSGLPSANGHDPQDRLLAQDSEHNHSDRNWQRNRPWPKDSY

| Compound | IC50 |
| --- | --- |
| O=C(CN1CCCC(c2ccccc2)(c2ccccc2)C1=O)N1CCN(S(=O)(=O)c2cccc(C(F)(F)F)c2)CC1 [Example 84, 1-[2-oxo-2-(4-{[3-(trifluoromethyl)phenyl]sulfonyl}piperazin-1-yl)ethyl]-3,3-diphenylpiperidin-2-one] | 410 nM |
| O=C(CN1CCCC(c2ccccc2)(c2ccccc2)C1=O)NC1CCN(C(c2ccccc2)c2ccccc2)CC1 [Example 85, N-(1-benzhydrylpiperidin-4-yl)-2-(2-oxo-3,3-diphenylpiperidin-1-yl)acetamide] | 410 nM |
| O=C(CN1CCCC(c2ccccc2)(c2ccccc2)C1=O)N1CCC(NC(c2ccccc2)c2ccccc2)CC1 [Example 87, 1-{2-[4-(benzhydrylamino)piperidin-1-yl]-2-oxoethyl}-3,3-diphenylpiperidin-2-one] | 760 nM |
| CC1(NC(=O)CN2CCCC(c3ccccc3)(c3ccccc3)C2=O)CCN(Cc2ccccc2)C1 (stereo not drawn) [Example 89, N-(1-benzyl-3-methylpyrrolidin-3-yl)-2-(2-oxo-3,3-diphenylpiperidin-1-yl)acetamide] | 3000 nM |
| O=C(CN1CCCC(c2ccccc2)C1=O)N1CCN(C(c2ccc(F)cc2)c2ccc(F)cc2)CC1 (stereo not drawn) [Example 92, 1-(2-{4-[bis(4-fluorophenyl)methyl]piperazin-1-yl}-2-oxoethyl)-3-phenylpiperidin-2-one] | 1010 nM |
| O=C(CN1CCCC(c2ccccc2)C1=O)N1CCN(Cc2cccc(C(F)(F)F)c2)CC1 (stereo not drawn) [Example 93, 1-(2-oxo-2-{4-[3-(trifluoromethyl)benzyl]piperazin-1-yl}ethyl)-3-phenylpiperidin-2-one] | 5900 nM |
| O=C(CN1CCCC(c2ccccc2)C1=O)N1CCN(Cc2ccc(Cl)cc2Cl)CC1 (stereo not drawn) [Example 94, 1-{2-[4-(2,4-dichlorobenzyl)piperazin-1-yl]-2-oxoethyl}-3-phenylpiperidin-2-one] | 2200 nM |
| O=C(CN1CCCC(c2ccccc2)C1=O)N1Cc2ccc(F)cc2C1 (stereo not drawn) [Example 95, 1-[2-(5-fluoro-1,3-dihydro-2H-isoindol-2-yl)-2-oxoethyl]-3-phenylpiperidin-2-one] | 34800 nM |
| O=C(CN1CCCC(c2ccccc2)C1=O)N1CCc2ccc(C(F)(F)F)cc2C1 (stereo not drawn) [Example 96, 1-{2-oxo-2-[7-(trifluoromethyl)-3,4-dihydroisoquinolin-2(1H)-yl]ethyl}-3-phenylpiperidin-2-one] | 8900 nM |
| O=C(CN1CCCC(c2ccccc2)C1=O)NC1(c2ccc(F)cc2)CCC1 (stereo not drawn) [Example 97, N-[1-(4-fluorophenyl)cyclobutyl]-2-(2-oxo-3-phenylpiperidin-1-yl)acetamide] | 10000 nM |
| O=C(CN1CCNC(c2ccccc2)C1=O)N1CCN(C(c2ccccc2)c2ccccc2)CC1 (stereo not drawn) [Example 102, 1-[2-(4-benzhydrylpiperazin-1-yl)-2-oxoethyl]-3-phenylpiperazin-2-one] | 8390 nM |
| O=C(CN1CCNC(c2ccccc2)C1=O)N1CCN(C(c2ccc(F)cc2)c2ccc(F)cc2)CC1 (stereo not drawn) [Example 103, 1-(2-{4-[bis(4-fluorophenyl)methyl]piperazin-1-yl}-2-oxoethyl)-3-phenylpiperazin-2-one] | 10600 nM |
| CN(CCN1CCC(c2ccc(F)cc2)(c2ccc(F)cc2)C1=O)CC(O)COc1cccc2ncccc12 (stereo not drawn) [Example 108, 3,3-bis(4-fluorophenyl)-1-{2-[[2-hydroxy-3-(quinolin-5-yloxy)propyl](methyl)amino]ethyl}pyrrolidin-2-one] | 1000 nM |
| COc1cc(CN2CCN(CCN3CCC(c4ccc(F)cc4)(c4ccc(F)cc4)C3=O)CC2)cc(OC)c1OC [Example 109, 3,3-bis(4-fluorophenyl)-1-{2-[4-(3,4,5-trimethoxybenzyl)piperazin-1-yl]ethyl}pyrrolidin-2-one] | 1760 nM |
| COc1cc(CN2CCN(CCCN3CCC(c4ccc(F)cc4)(c4ccc(F)cc4)C3=O)CC2)cc(OC)c1OC [Example 110, 3,3-bis(4-fluorophenyl)-1-{3-[4-(3,4,5-trimethoxybenzyl)piperazin-1-yl]propyl}pyrrolidin-2-one] | 1470 nM |
| O=C1N(CCN2CCN(c3cccc(C(F)(F)F)c3)CC2)CCC1(c1ccc(F)cc1)c1ccc(F)cc1 [Example 111, 3,3-bis(4-fluorophenyl)-1-(2-{4-[3-(trifluoromethyl)phenyl]piperazin-1-yl}ethyl)pyrrolidin-2-one] | 3940 nM |
| COc1ccc(C2(c3ccc(OC)cc3)CCN(CCNC(=O)c3ccccc3)C2=O)cc1 [Example 112, N-{2-[3,3-bis(4-methoxyphenyl)-2-oxopyrrolidin-1-yl]ethyl}benzamide] | 10000 nM |

Continued by falling IC50, values first:

| IC50 | Compound |
| --- | --- |
| 8650 nM | O=C1N(Cc2nc(-c3ccc(C(F)(F)F)cc3)no2)CCCC1(c1ccccc1)c1ccccc1 [Example 99, 3,3-diphenyl-1-({3-[4-(trifluoromethyl)phenyl]-1,2,4-oxadiazol-5-yl}methyl)piperidin-2-one] |
| 5290 nM | O=C1N(Cc2nc(-c3ccc(F)cc3)no2)CCCC1(c1ccccc1)c1ccccc1 [Example 100, 1-{[3-(4-fluorophenyl)-1,2,4-oxadiazol-5-yl]methyl}-3,3-diphenylpiperidin-2-one] |
| 4700 nM | CN1CCN(CC(=O)N2CCN(C(c3ccc(F)cc3)c3ccc(F)cc3)CC2)C(=O)C1c1ccccc1 (stereo not drawn) [Example 104, 1-(2-{4-[bis(4-fluorophenyl)methyl]piperazin-1-yl}-2-oxoethyl)-4-methyl-3-phenylpiperazin-2-one] |
| 4610 nM | O=C(CN1CCCC(c2ccc(F)cc2)(c2ccc(F)cc2)C1=O)N1CCN(C(c2ccccc2)c2ccccc2)CC1 [Example 90, 1-[2-(4-benzhydrylpiperazin-1-yl)-2-oxoethyl]-3,3-bis(4-fluorophenyl)piperidin-2-one] |
| 1880 nM | COCc1cc(/C=C/c2ccccc2OCC(O)CN(C)CCN2CCC(c3ccc(F)cc3)(c3ccc(F)cc3)C2=O)on1 (stereo not drawn) [Example 107, 3,3-bis(4-fluorophenyl)-1-{2-[[2-hydroxy-3-(2-{(E)-2-[3-(methoxymethyl)isoxazol-5-yl]vinyl}phenoxy)propyl](methyl)amino]ethyl}pyrrolidin-2-one] |
| 1770 nM | CC(C)(C)OC(=O)N1CCN(CC(=O)N2CCN(C(c3ccccc3)c3ccccc3)CC2)C(=O)C1c1ccccc1 (stereo not drawn) [Example 101, tert-butyl 4-[2-(4-benzhydrylpiperazin-1-yl)-2-oxoethyl]-3-oxo-2-phenylpiperazine-1-carboxylate] |
| 1650 nM | COc1cc(OC)cc(OCCCN(C)CCN2CCC(c3ccc(F)cc3)(c3ccc(F)cc3)C2=O)c1 [Example 105, 1-{2-[[3-(3,5-dimethoxyphenoxy)propyl](methyl)amino]ethyl}-3,3-bis(4-fluorophenyl)pyrrolidin-2-one] |
| 1640 nM | O=C(CN1CCCC(c2ccccc2)(c2ccccc2)C1=O)N1C[C@@H]2CCCN(C(c3ccccc3)c3ccccc3)[C@@H]2C1 [Example 88, 1-{2-[(4aS,7aS)-1-benzhydryloctahydro-6H-pyrrolo[3,4-b]pyridin-6-yl]-2-oxoethyl}-3,3-diphenylpiperidin-2-one] |
| 1230 nM | O=C(CN1CCCC(c2ccccc2)(c2ccccc2)C1=O)N1CCN(C(c2ccccc2)c2ccccc2)C(=O)C1 [Example 83, 1-benzhydryl-4-[(2-oxo-3,3-diphenylpiperidin-1-yl)acetyl]piperazin-2-one] |
| 730 nM | COc1ccc(C2(c3ccc(OC)cc3)CCN(CCN(C)CC(O)COc3cccc4ncccc34)C2=O)cc1 (stereo not drawn) [Example 106, 1-{2-[[2-hydroxy-3-(quinolin-5-yloxy)propyl](methyl)amino]ethyl}-3,3-bis(4-methoxyphenyl)pyrrolidin-2-one] |
